Test results: patent US8227408B2, “Leptin as an anti-amyloidogenic biologic and methods for delaying the onset and reducing Alzheimer's disease-like pathology” (Neurotez, Inc., priority 2005, dated 2012)

Key:
SY5Y cells = experiment: 125I-Aβ uptake by SY5Y cells (apoE-dependent); format: cell-based, human
Method: Preparation of ApoE and binding with ^125I-Aβ. ApoE was isolated from the conditioned media of human embryonic kidney (HEK-293) cells stably-transfected with human apoE (having the ε3 allele or the ε4 allele) cDNA (Tezapsidis et al., FASEB J. 17:1322-1324 (2003)). These preparations, while usually poor in lipid, are fully functional for uptake experiments. ApoE then was pre-incubated with ^125I-Aβ overnight at 37° C. (Aβ/ApoE: 1/50 w/w) as described (Tezapsidis et al., FASEB J. 17:1322-1324 (2003)).
Aβ-uptake by SY5Y cells. Human ^125I-Aβ (iodinated at Tyr-10, Amersham Biosciences, IM 294) uptake was measured following addition of 0.1 nM ^125I-Aβ40 (SEQ ID NO: 4) to confluent SY5Y cells (60,000 cpm/ml) in the presence or absence of 100 ng/ml or 400 ng/ml leptin also included in a 24 h pre-incubation period. ^125I-Aβ was either added alone or was previously incubated with apoε3. In controls, Receptor Associated Protein (“RAP”, 1 μM) was added together with Aβ or the Aβ/apoE complex. RAP is an antagonist of a number of lipoprotein receptors (LaDu et al., Neurochem Int. 39:427-34 (2001)). After 24 h, the media were collected and subjected to scintillation counting for γ-Iradiation (Kang et al., 2000. J Clin Invest. 106:1159-66 (2000)). The amount of radioactivity was measured in both the trichloroacetic acid (10%) TCA pellets (representing intact Aβ) and the corresponding supernatants (representing degraded Aβ). 96.5±8.2% (mean±s.e.m., n=4 experiments, triplicate determinations) of the radioactivity found in the medium could be recovered in the TCA pellet and represented intact or oligomeric Aβ (not shown), when Aβ was pre-incubated with apoE.
The amount of TCA-precipitable radioactivity in the soluble fraction of cell lysates was compared to that in the total lysates, the ratio of which was typically about 0.8 to about 0.9 (not shown), to further verify that radioactivity was reduced in the media as a reflection of Aβ uptake by the cells, rather than due to non-specific binding to the extracellular surface of membranes or oligomerization/aggregation of Aβ.
In panel (a), Aβ uptake was measured in SY5Y cells following their treatment at 0 ng/ml, 100 ng/ml or 400 ng/ml leptin. Uptake also was measured in cells previously transfected with antisense DNA for PS1 as described (Tezapsidis et al., FASEB J. 17:1322-1324(2003)) (black). Uptake is expressed as the percentage of that observed with Aβ pre-incubated with apoε3 (medium gray) in the absence of leptin (first set of columns). […] Leptin induced a dose-dependent increase in Aβ uptake with a preference for apoε3 (medium gray) over apoε4 (light gray). In panel (b), SY5Y cells were pre-treated with […] cholesterol (+Chol) or normal medium (−Chol). Then Aβ uptake was measured following its preincubation with apoε3 (ε3) or apoε4 (ε4) in the absence (black) or the presence (gray) of about 400 ng/ml leptin. Cells were more resistant to taking-up Aβ when loaded with cholesterol. […] In panel (c), SY5Y cells were transiently transfected with SREBP-1 or SREBP-2 cDNA or an empty vector (Control). Then Aβ was measured in the medium by ELISAs (Figueiredo-Pereira et al., J Neurochem. 72:1417-22 (1999)) following treatment with (+) or without (−) leptin. […] In panel (d), Aβ uptake was measured in SY5Y cells prepared as in panel (c). Uptake was performed using Aβ/apoε3 complexes.

[1] = test system: transfected Neuro2a cells; experiment: 125I-Aβ degradation and tracer uptake in culture media during treatments; format: cell-based, mouse; conditions: 1 mM 1,10-phenanthroline
Description: Leptin was almost as efficient as methyl-β-cyclodextrin in lowering Aβ (FIG. 4a, 4b).

neurons = experiment: Leptin immunostaining of neurons treated with cholesterol; format: cell-based, rat; conditions: neurons, 0, 5 or 10 μM cholesterol, 5 h
Method: (§1) Leptin was detected using a rabbit polyclonal antibody raised against mouse leptin, corss-reacting with human leptin (obtained from Dr. A. F. Parlow, Harbor-UCLA, CA). Immunofluorescent confocal microscopy was performed on 2% paraformaldehyde-fixed primary neural cells. Filipin staining was performed as described (Feng et al., Nat Cell Biol. 5:781-92 (2003)).
(§2) Neural cultures from ε15 rat cerebral cortex were processed for enrichment of neurons (a-d) or astrocytes (e-h) as described (Takeshima et al., J. Neurosci. Methods 67: 27-41 (1996)). After about 7 days to about 10 days in culture, cultures were treated for about 5 h with about 10 μg/ml cholesterol (b, f) or about 400 ng/ml leptin plus cholesterol (c, g) or leptin alone (d, h). Controls (a, e) were treated with culture media alone. Filipin staining was performed as described (Feng et al., Nat. Cell Biol. 5: 781-92 (2003)). Neurons (i-k) and astrocytes (l-n) prepared as above were treated with 0 μM (i, l), 5 μM (j, m) or 10 μM cholesterol (k, n) for 5 h. Immunostaining was performed for leptin (A.F.Parlow, Harbor-UCLA, CA).

β-secretase = experiment: C99/C83 accumulation in SY5Y cells in presence of γ-secretase inhibitors (Western blot); format: cell-based, human; conditions: 5 h, with L-685,458 (100 nM) or Z-VL-CHO (100 μM); 10 μM cholesterol or 400 ng/ml leptin alone
[2] = test system: Neuro2a cells stably transfected with hyg-sa134 (SEAP-APP); experiment: Aβ production by Neuro2a cells stably transfected with hyg-sa134 (total Aβ in media, sandwich ELISA); format: cell-based, mouse; conditions: 5 h; about 400 ng/ml leptin alone or 10 μM water-soluble cholesterol alone; FIG. 4b
astrocytes = experiment: Leptin immunostaining of astrocytes treated with cholesterol; format: cell-based, rat; conditions: astrocytes, 0, 5 or 10 μM cholesterol, 5 h
Method: as §1, §2

SMILES | Aβ degradation during the uptake (SY5Y cells; absence of apoE) | tracer's uptake by the cells [1] | levels of leptin-like immunoreactivity (neurons) | apoε3-Aβ taken up compared to controls (SY5Y cells; SY5Y cells preloaded with cholesterol/CDX, without leptin, FIG. 5b) [%] | C99 level (β-secretase) | levels of Aβ detected in the media (percentage of corresponding controls) [2] [%] | levels of leptin-like immunoreactivity (astrocytes)
c1cnc2c(c1)ccc1cccnc12 [1,10-phenanthroline] | abolished Aβ degradation | did not cause any significant difference |  |  |  |  | 
CC(C)CCC[C@@H](C)[C@H]1CC[C@H]2[C@@H]3CC=C4C[C@@H](O)CC[C@]4(C)[C@H]3CC[C@]12C [cholesterol] |  |  | enhanced | 22±6 | increase in C99 | 205±6 | enhanced
